Laboratory results from PMC3458928, “Co-Factor Binding Confers Substrate Specificity to Xylose Reductase from Debaryomyces hansenii” (PLoS ONE, 2012).
Values joined by “and” are separate entries in the source; they are usually repeats but may differ in a detail not shown here. Equal values may be shown once. Read-outs that look alike come from different tables or passages of the source.

Columns and labels:
[1] = biological target: T1, DhXR N305A mutant (Debaryomyces hansenii, UniProt Q6BLI9, N305A); experiment: Fluorescence quenching titration, ligand binding to DhXR N305A mutant
T1 sequence (Q6BLI9 1-317 N305A): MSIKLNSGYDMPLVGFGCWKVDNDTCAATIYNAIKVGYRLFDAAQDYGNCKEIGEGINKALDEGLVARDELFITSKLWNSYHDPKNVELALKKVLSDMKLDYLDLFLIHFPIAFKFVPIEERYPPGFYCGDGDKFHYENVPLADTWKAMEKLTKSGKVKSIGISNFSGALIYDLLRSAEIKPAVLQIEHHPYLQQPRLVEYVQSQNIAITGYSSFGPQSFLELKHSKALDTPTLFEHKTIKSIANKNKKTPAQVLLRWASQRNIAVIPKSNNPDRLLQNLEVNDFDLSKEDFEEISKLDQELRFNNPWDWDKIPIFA
Experimental: (§1) Titrations of DhXR with ligands were examined by monitoring the intrinsic tryptophan fluorescence of DhXR using a Varian spectrofluorometer. Experiments were performed in indicated buffers as mentioned in the text. The excitation wavelength and emission wavelengths for monitoring DhXR-ligand interaction were 292 nm and 345 nm respectively. Slit widths were set to 5 nm for all experiments and PMT voltage was adjusted to get maximum signal for a given protein concentration. All experiments were done at 25.0±1°C. Initial readings of both the protein, Fprotein,0 and buffer, Fbuff,0 were taken, with F0 = Fprotein,0–Fbuff,0 defined as the initial fluorescence of the sample. The sample cuvette was then titrated with aliquots of ligands and mixed, and equilibrated for 3–4 minutes before measurement. Data points from five such measurements were averaged to obtain Fave,i. The relative fluorescence quenching upon sugar binding is defined as Qobs,i = (F0–Fave,i)/F0. All measurements were corrected for dilution, and inner filter effects.
(§2) Binding of ligands to DhXR was analyzed using two site binding model. [drawing 1] (1) where Q1 and Q2 are the fluorescence quenching corresponding to one and two ligands bound, respectively; L is concentration of free ligand in solution; K1,obs and K2,obs are association constants for the binding of the first and the second ligand molecule. Errors were calculated from fitting analysis of two independent experiments.
(§3) We tested the activity of all mutants and activities were normalized to the activity of wild type DhXR with respect to its D-xylose reducing activity.

[2] = biological target: T2, DhXR D10A mutant (Debaryomyces hansenii, UniProt Q6BLI9, D10A); experiment: Fluorescence quenching titration, ligand binding to DhXR D10A mutant
T2 sequence (Q6BLI9 1-317 D10A): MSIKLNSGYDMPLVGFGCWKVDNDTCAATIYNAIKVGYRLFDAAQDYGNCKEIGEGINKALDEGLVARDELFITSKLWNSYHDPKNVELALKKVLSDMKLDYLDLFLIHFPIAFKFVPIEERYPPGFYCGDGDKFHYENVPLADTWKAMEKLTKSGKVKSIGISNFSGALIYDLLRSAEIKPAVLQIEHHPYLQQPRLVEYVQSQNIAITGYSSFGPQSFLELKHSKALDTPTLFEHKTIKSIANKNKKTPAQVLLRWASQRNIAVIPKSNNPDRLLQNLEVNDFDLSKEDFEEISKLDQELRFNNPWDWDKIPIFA
Experimental: as §1, §2, §3

[3] = biological target: DhXR K76A mutant (Debaryomyces hansenii, UniProt Q6BLI9, K76A); experiment: biochemical; format: binding
Experimental: as §1, §2, §3

[4] = biological target: DhXR Y47A mutant (Debaryomyces hansenii, UniProt Q6BLI9, Y47A); experiment: biochemical; format: binding
Experimental: as §1, §2, §3

[5] = biological target: DhXR H109A mutant (Debaryomyces hansenii, UniProt Q6BLI9, H109A); experiment: biochemical; format: binding
Experimental: as §1, §2, §3

[6] = biological target: T3, DhXR D42A mutant (Debaryomyces hansenii, UniProt Q6BLI9, D42A); experiment: Fluorescence quenching titration, ligand binding to DhXR D42A mutant
T3 sequence (Q6BLI9 1-317 D42A): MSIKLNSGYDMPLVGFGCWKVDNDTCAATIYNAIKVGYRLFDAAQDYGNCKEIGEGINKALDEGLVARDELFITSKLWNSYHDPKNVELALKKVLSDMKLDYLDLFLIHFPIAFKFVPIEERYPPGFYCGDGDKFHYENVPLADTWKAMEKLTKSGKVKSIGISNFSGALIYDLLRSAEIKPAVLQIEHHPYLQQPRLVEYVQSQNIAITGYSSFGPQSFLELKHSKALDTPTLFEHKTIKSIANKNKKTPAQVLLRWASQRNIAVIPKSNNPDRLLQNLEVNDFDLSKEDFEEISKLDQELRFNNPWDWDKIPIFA
Experimental: as §1, §2, §3

[7] = biological target: apo-DhXR (wild type xylose reductase) (Debaryomyces hansenii, UniProt Q6BLI9); experiment: Tryptophan fluorescence quenching titration, ligand binding to apo-DhXR wild type; settings: for ratio of first to second intrinsic binding constant: affinity of first vs second ligand molecule
Experimental: as §1, §2
We examined the binding of D-xylose, xylitol, and NADPH to apo-DhXR. Quenching of tryptophan fluorescence upon ligand binding was used as the signal for monitoring the extent of binding. Apo-DhXR was excited at 292 nm and emission of tryptophan fluorescence was scanned between 300–375 nm (Fig. S2). […] Intrinsic site-specific binding constants are estimated from the macroscopic binding constants obtained from fitting by removing the statistical factors as in eq (2). [drawing 2] (2)

[8] = system: DhXR-NADPH complex; experiment: Fluorescence titration of pre-formed DhXR-NADPH binary complex; format: binding, Debaryomyces hansenii; settings: DhXR pre-incubated with 20.0 µM NADPH
Experimental: as §1
(§4) Assays were performed at 100 mM D-xylose and concentrations of competing sugars were varied (25 mM to 400 mM). […] Both DhXR and NADPH (20.0 µM) are pre-incubated and fluorescence signal was monitored until no further change. […] It should be noted that D-xylose is the substrate and is very likely to be reduced soon after binding.

[9] = biological target: T4, holo-DhXR (Debaryomyces hansenii, UniProt Q6BLI9); experiment: Single point specific activity of holo-DhXR towards different sugars; format: biochemical; settings: saturated sugar concentration (100 mM), 40 °C
Experimental: (§5) The xylose reductase activities of recombinant DhXR was determined spectrophotometrically by monitoring the change in A340 upon reduction of NADPH to NADP. The standard assay mixture contained 50 mM KPO4, pH 7.0, 100 mM sugar substrate, 0.3 mM NADPH, 0.18 µM of enzyme. Single point activity studies were performed at 40°C and all reactions were started by the addition of enzyme to a final volume of 0.8 ml (in standard assay condition). […] Errors for the activity assays were calculated from triplicate experiments. The kinetic parameters were determined using a range of substrate concentrations. Here, the reaction was performed at 25°C and assay mixture contained 50 mM KPO4, pH 7.0, 0.15 mM NADPH, 0.18 µM of enzyme and varying substrate concentrations. Steady state kinetics data were fit to Michaelis-Menten model, v = Vmax * [S]/([S]+Km), where Vmax, maximal velocity; Km, Michaelis-Menten constant; S, substrate concentration, and v, initial velocity.

[10] = biological target: T4, holo-DhXR; experiment: Steady state kinetics of carbonyl substrate reduction by holo-DhXR (A340, NADPH); format: biochemical
Experimental: as §5
To understand the specificity determining component in catalysis, we studied the steady state kinetics of holo-DhXR towards different carbonyl substrates. […] Therefore, all kinetic data analyzed fitting to Michaelis-Menten model by Non-Linear Least Squares method. (Fig. 4A). Steady state kinetic parameters are also determined for other sugars (table 3, Fig. 4B). […] We compared the Km/Kd ratio as an indicator of net affinity loss for a given substrate (Fig. S5).
In order to further verify that holoenzyme discriminates between substrate and non-substrate sugars, we challenged the catalysis of D-xylose by adding non-substrate sugars during kinetic experiments. […] We studied the kinetics of D-xylose reduction by holo-DhXR in the presence of fixed concentration (∼40 mM) of three sugars (Fig. 4C).

[11] = biological target: T4, holo-DhXR; experiment: Specific activity of DhXR with 100 mM D-xylose in presence of competing sugars; format: biochemical
Experimental: as §5, §4

[12] = biological target: Xylose Reductase from Debaryomyces hansenii (Debaryomyces hansenii CBS767); experiment: SEC; purified DhXR, single peak at 52 mL; column calibrated with ferritin, catalase, aldolase, albumin and ovalbumin; estimated mass ~71 kDa
[13] = Kd1,int, wild type apo-DhXR, first site, 25 °C

Compound	Kd [1] [mM]	Kd [2] [mM]	Kd [3] [mM]	Kd [4] [mM]	Kd [5] [mM]	Kd [6] [mM]	ratio of first to second intrinsic binding constant [7]	K1,int (intrinsic association constant, first ligand) ([7]; wild type apo-DhXR)	binding to DhXR-NADPH complex (fluorescence signal) [8]	reduction of holoenzyme activity compared with D-xylose [9]	Kd [7, 13]	also measured
NC(=O)C1=CN([C@@H]2O[C@H](COP(=O)(O)OP(=O)(O)OC[C@H]3O[C@@H](n4cnc5c(N)ncnc54)[C@H](OP(=O)(O)O)[C@@H]3O)[C@@H](O)[C@H]2O)C=CC1 [NADPH, Nicotinamide adenine dinucleotide phosphate]	0.0083 ± 0.002	0.0033 ± 0.0002	0.01 ± 0.0006	0.01 ± 0.0007	0.0055 ± 0.002	0.01 ± 0.0005	~4	8.9±0.4×10^5 M^−1	–	–	–	Kd ([1]; read-out: Kd2,int, N305A, second site, NADPH): 0.09 ± 0.025 mM; Kd ([2]; read-out: Kd2,int, D10A, second site, NADPH): 0.01 ± 0.003 mM; Kd ([4]; read-out: Kd2,int, Y47A, second site, NADPH): 0.192 ± 0.026 mM; Kd ([5]; read-out: Kd2,int, H109A, second site, NADPH): 0.083 ± 0.035 mM; Kd ([7]; Kd1,int, wild type apo-DhXR, first site, NADPH): 0.0011 ± 0.0002 mM; affinity of cofactor relative to substrate affinity ([7]; apoenzyme): ~4700 times; Kd ([7]; read-out: Kd2,int, wild type apo-DhXR, second site, NADPH): 0.0039 ± 0.0002 mM
C[C@H](O)[C@H](O)[C@@H](O)[C@@H](O)C=O [L-rhamnose]	–	–	–	–	–	–	–	–	cannot bind	more than 95%	–	catalysis in steady state kinetic curves (in words) ([10]; comparison of kinetic curves of different sugars): very low activity; Km/Kd ratio (net affinity loss), predicted minimum ([10]; could not be estimated due to insignificant catalysis, minimum predicted): > 500 fold; Specific activity ([11]; 25 mM sugar added in 100 mM D-xylose reaction): 76.2 ± 6.4 nmol/min; Specific activity ([11]; 100 mM sugar added in 100 mM D-xylose reaction): 73.4 ± 2.8 nmol/min; Specific activity ([11]; 400 mM sugar added in 100 mM D-xylose reaction): 68.7 ± 3.4 nmol/min; Kd ([7]; wild type apo-DhXR, first site, 25 °C, read-out: Kd1,int): 14 ± 3 mM; Kd ([7]; wild type apo-DhXR, second site, 25 °C, read-out: Kd2,int): 33 ± 13 mM
Xylose Reductase from Debaryomyces hansenii (enzyme)	–	–	–	–	–	–	–	–	–	–	–	stoichiometry N [12]: 2
O=C[C@H](O)[C@@H](O)[C@H](O)CO [D-xylose]	6.4 ± 2	6.7 ± 1	12.8 ± 2	12.9 ± 2	13.3 ± 2	5.1 ± 0.6	~4	1.9±0.6×10^2 M^−1	showed further quenching of fluorescence	–	~5.3 mM and 5.3 mM	Kd ([6]; read-out: Kd2,int, D42A, second site): 47.6 ± 18 mM; Km/Kd ratio (net affinity loss) ([10]; Km of holoenzyme vs Kd of apoenzyme): 12–15 fold; Specific activity ([11]; 100 mM D-xylose alone, 0 mM competing sugar): 72.5 ± 2.4 nmol/min; Hill coefficient, nH ([7]; from logarithmic (Hill) plot): ~0.68; Kd ([7]; read-out: Kd2,int, wild type apo-DhXR, second site, 25 °C): 17 mM and 17.2 mM; K2,int (intrinsic association constant, second ligand) ([7]; wild type apo-DhXR): 5.8±0.1×10^1 M^−1
OC[C@H]1O[C@@](CO)(O[C@H]2O[C@H](CO)[C@@H](O)[C@H](O)[C@H]2O)[C@@H](O)[C@@H]1O [Sucrose, sucrose]	–	–	10 ± 1	11 ± 2	5 ± 0.2	–	–	–	–	more than 95%	7.3 ± 1 mM	reduction in affinity versus wild type ([4]; Y47A, first site): ~2 fold; reduction in affinity versus wild type ([5]; H109A): no reduction; Kd ([7]; Kd2,int, wild type apo-DhXR, second site, 25 °C): 19 ± 5 mM
